In PMC7463651, “Phase I/Ib Study of Tenalisib (RP6530), a Dual PI3K δ/γ Inhibitor in Patients with Relapsed/Refractory T-Cell Lymphoma” (Cancers, 2020):
Where “and” joins values, the source holds several entries; their conditions need not be identical. Equal entries are not always repeated.

System: patients with relapsed/refractory T Cell Lymphoma
Experiment: Safety assessment (adverse events per CTCAE v4.03, DLT/MTD) in phase I/Ib study
Format: in vivo, human
Protocol: Protocol defined hematological or non-hematological toxicity was considered dose-limiting if it occurred during the first cycle (within the first 28 d) and was considered related to Tenalisib. Hematological DLTs was defined as Grade 4 anemia; Grade 4 neutropenia for >7 days, or Grade ≥3 febrile neutropenia with fever >38.5 °C [101 °F]; Grade 4 thrombocytopenia for >7 days, or Grade ≥3 thrombocytopenia associated with Grade >2 bleeding.
Safety assessment included adverse event (AE) and serious adverse events (SAE) as per Common Terminology Criteria for Adverse Events (CTCAE), Version 4.03. During dose escalation, safety assessments were performed at weekly intervals during Cycle 1 and Cycle 2 and at two weekly intervals during Cycle 3 and 4. After completion of Cycle 4, safety assessments were performed on Day 1 of each subsequent cycle. In dose expansion phase, all safety assessments were performed on Day 1 of each cycle.

[1] = Relationship-all, Dose Expansion (N = 39)
[2] = Relationship-all, Total (N = 58)

## CC[C@H](Nc1ncnc2[nH]cnc12)c1oc2ccccc2c(=O)c1-c1cccc(F)c1 [Tenalisib]
[1]
  Pyrexia: patients with event: 9 (23.1%) n (%)
  Rash: count of events: 6
  Rash: patients with event: 3 (7.7%) n (%)
  Tachycardia: count of events: 3
  Tachycardia: patients with event: 3 (7.7%) n (%)
  Vomiting: count of events: 6
  Vomiting: patients with event: 5 (12.8%) n (%)
[2]
  Abdominal pain: count of events: 9
  Abdominal pain: patients with event: 8 (13.8%) n (%)
  Alanine aminotransferase increased: count of events: 33
  Alanine aminotransferase increased: patients with event: 20 (34.5%) n (%)
  Anemia: count of events: 16
  Anemia: patients with event: 9 (15.5%) n (%)
  Aspartate aminotransferase increased: count of events: 37
  Aspartate aminotransferase increased: patients with event: 21 (36.2%) n (%)
  Blood creatinine increased: count of events: 7
  Blood creatinine increased: patients with event: 7 (12.1%) n (%)
  Blood thyroid stimulating hormone increased: count of events: 7
  Blood thyroid stimulating hormone increased: patients with event: 6 (10.3%) n (%)
  Constipation: count of events: 10
  Constipation: patients with event: 9 (15.5%) n (%)
  Cough: count of events: 16
  Cough: patients with event: 13 (22.4%) n (%)
  Decreased appetite: count of events: 13
  Decreased appetite: patients with event: 12 (20.7%) n (%)
  Dehydration: count of events: 18
  Dehydration: patients with event: 13 (22.4%) n (%)
  Diarrhea: count of events: 25
  Diarrhea: patients with event: 19 (32.8%) n (%)
  Dizziness: count of events: 12
  Dizziness: patients with event: 10 (17.2%) n (%)
  Dry skin: count of events: 8
  Dry skin: patients with event: 7 (12.1%) n (%)
  Dyspnea: count of events: 7
  Dyspnea: patients with event: 7 (12.1%) n (%)
  Fatigue: count of events: 27
  Fatigue: patients with event: 26 (45%) n (%) and 26 (44.8%) n (%)
  Gamma-glutamyl transferase increased: count of events: 11
  Gamma-glutamyl transferase increased: patients with event: 8 (13.8%) n (%)
  Grade 3/4 Alanine aminotransferase increased: count of events: 12
  Grade 3/4 Alanine aminotransferase increased: patients with event: 11 (19.0%) n (%)
  Grade 3/4 Anemia: count of events: 8
  Grade 3/4 Anemia: patients with event: 5 (8.6%) n (%)
  Grade 3/4 Aspartate aminotransferase increased: count of events: 12
  Grade 3/4 Aspartate aminotransferase increased: patients with event: 11 (19.0%) n (%)
  Grade 3/4 Fatigue: count of events: 4
  Grade 3/4 Fatigue: patients with event: 3 (5.2%) n (%)
  Grade 3/4 Hyponatremia: count of events: 4
  Grade 3/4 Hyponatremia: patients with event: 4 (6.9%) n (%)
  Grade 3/4 Neutropenia: count of events: 4
  Grade 3/4 Neutropenia: patients with event: 4 (6.9%) n (%)
  Grade 3/4 Thrombocytopenia: count of events: 3
  Grade 3/4 Thrombocytopenia: patients with event: 3 (5.2%) n (%)
  Headache: count of events: 13
  Headache: patients with event: 10 (17.2%) n (%)
  Hypokalemia: count of events: 10
  Hypokalemia: patients with event: 7 (12.1%) n (%)
  Hyponatremia: count of events: 9
  Hyponatremia: patients with event: 8 (13.8%) n (%)
  Insomnia: count of events: 7
  Insomnia: patients with event: 6 (10.3%) n (%)
  Muscle spasms: count of events: 10
  Muscle spasms: patients with event: 9 (15.5%) n (%)
  Nausea: count of events: 16
  Nausea: patients with event: 15 (25.9%) n (%)
  Pruritus: count of events: 10
  Pruritus: patients with event: 9 (15.5%) n (%)
  Psychiatric disorders: count of events: 18
  Psychiatric disorders: patients with event: 11 (19.0%) n (%)
  Pyrexia: count of events: 21
  Pyrexia: patients with event: 13 (22.4%) n (%)
  Rash: count of events: 10
  Rash: patients with event: 6 (10.3%) n (%)
  Tachycardia: count of events: 9
  Tachycardia: patients with event: 8 (13.8%) n (%)
  Vomiting: count of events: 11
  Vomiting: patients with event: 9 (15.5%) n (%)
All patients
  Fatigue, most frequently reported TEAE: 45%
  Transaminase elevations, most frequently reported related TEAE: 33%
Also in patients treated for more than six months
  Late onset toxicities like colitis, pneumonitis, and opportunistic infections: not seen
human, in vivo
  Alanine aminotransferase increased: count of events: 13
  Alanine aminotransferase increased: patients with event: 6 (31.6%) n (%)
  Anemia, Grade 3 TEAE: 8.6%
  Anemia: count of events: 1
  Anemia: patients with event: 1 (5.3%) n (%)
  Aspartate aminotransferase increased: count of events: 15
  Aspartate aminotransferase increased: patients with event: 6 (31.6%) n (%)
  Blood alkaline phosphatase increased: count of events: 1
  Blood alkaline phosphatase increased: patients with event: 1 (5.3%) n (%)
  Blood creatinine increased: patients with event: 1 (5.3%) n (%)
  Blood thyroid stimulating hormone increased: count of events: 2
  Blood thyroid stimulating hormone increased: patients with event: 2 (10.5%) n (%)
  Constipation: count of events: 5
  Constipation: patients with event: 4 (21.1%) n (%)
  Cough: count of events: 7
  Cough: patients with event: 6 (31.6%) n (%)
  Decreased appetite: count of events: 5
  Decreased appetite: patients with event: 5 (26.3%) n (%)
  Discontinuation due to adverse events: 9%
  Dry skin: count of events: 2
  Dry skin: patients with event: 2 (10.5%) n (%)
  Dyspepsia: count of events: 1
  Dyspepsia: patients with event: 1 (5.3%) n (%)
  Dyspnea: count of events: 5
  Dyspnea: patients with event: 5 (26.3%) n (%)
  Erythema: count of events: 1
  Erythema: patients with event: 1 (5.3%) n (%)
  Gamma-glutamyl transferase increased: count of events: 2
  Gamma-glutamyl transferase increased: patients with event: 2 (10.5%) n (%)
  Gamma-glutamyltransferase increased: count of events: 2
  Gamma-glutamyltransferase increased: patients with event: 2 (10.5%) n (%)
  Grade 3/4 Alanine aminotransferase increased: count of events: 7
  Grade 3/4 Alanine aminotransferase increased: patients with event: 6 (15.4%) n (%)
  Grade 3/4 Anemia: count of events: 6
  Grade 3/4 Anemia: patients with event: 3 (7.7%) n (%)
  Grade 3/4 Aspartate aminotransferase increased: count of events: 8
  Grade 3/4 Aspartate aminotransferase increased: patients with event: 7 (17.9%) n (%)
  Grade 3/4 Fatigue: count of events: 3
  Grade 3/4 Fatigue: patients with event: 2 (5.1%) n (%)
  Grade 3/4 Hyponatremia: count of events: 2
  Grade 3/4 Hyponatremia: patients with event: 2 (5.1%) n (%)
  Grade 3/4 Neutropenia: count of events: 2
  Grade 3/4 Neutropenia: patients with event: 2 (5.1%) n (%)
  Grade 3/4 Thrombocytopenia: count of events: 2
  Grade 3/4 Thrombocytopenia: patients with event: 2 (5.1%) n (%)
  Headache: count of events: 4
  Headache: patients with event: 3 (15.8%) n (%)
  Hypokalemia: count of events: 5
  Hypokalemia: patients with event: 4 (21.1%) n (%)
  Hyponatremia, Grade 3 TEAE: 6.9%
  Hyponatremia: count of events: 4
  Hyponatremia: patients with event: 4 (21.1%) n (%)
  Insomnia: count of events: 3
  Insomnia: patients with event: 3 (15.8%) n (%)
  Neutropenia, Grade 3 TEAE: 6.9%
  Neutropenia: count of events: 2
  Number of related ≥Grade 3 AEs: 12
  Patients discontinued because of TEAEs: 14%
  Patients with SAEs: 22 (38%) n (%)
  Patients with at least one TEAE: 57 (98%) n (%)
  Patients with related AEs: 18 (64%) n (%)
  Patients with related Grade 4 TEAEs: 5.2%
  Patients with related ≥Grade 3 AEs: 9 (32%) n (%)
  Pruritus: count of events: 5
  Pruritus: patients with event: 4 (21.1%) n (%)
  Psychiatric disorders: count of events: 6
  Psychiatric disorders: patients with event: 4 (21.1%) n (%)
  Pyrexia: count of events: 4
  Pyrexia: patients with event: 4 (21.1%) n (%)
  Rash: count of events: 4
  Rash: patients with event: 3 (15.8%) n (%)
  SAEs gastrointestinal disorders, patients: 9%
  SAEs related to infections, patients: 16%
  Tachycardia: count of events: 6
  Tachycardia: patients with event: 5 (26.3%) n (%)
  Transaminase elevation, related Grade ≥3 TEAE: 21%
In vivo
  Deaths related to drug: none of them were related to Tenalisib
  Dose-limiting toxicities (DLT): no DLTs
  Fatal outcome of related TEAEs: None of the related TEAEs led to a fatal outcome
  Grade 4 related TEAEs: two events of ALT increase and one event of sepsis
  Number of SAEs assessed to be related: six
  Number of SAEs reported: Thirty-seven
Seven deaths
  Deaths reported in the study: 12%
